Measured values published in patent US10920265B2, “Compounds and methods for detection of enzymes that remove methyl succinyl groups from epsilon-amino lysine moieties” (Enzo Life Sciences, Inc., priority 2011, dated 2021).
Several values for one entry are separate records, joined by “and”; a condition that tells them apart may be missing. Equal entries are not always repeated. *: point of attachment. AMC = Cc1cc(=O)oc2cc(N*)ccc12

Legend:
Settings in all cases: 50 μM substrate
HDAC1 = target: T1, HDAC1 (Homo sapiens, UniProt Q13547); test: HDAC activity with fluorogenic lysyl substrates; assay type: biochemical
T1 construct: purchased ENZO Life Sciences BML-SE456
Method: (§1) The Ac-Lys(Succ.)-AMC substrate was tested for activity with recombinant preparations of human HDACs 1-11, SIRTs 1-4, 6 and 7, a complex of HDAC3 with a fragment of the activating protein NCOR1 and with HeLa nuclear extract, a rich source of active HDACs in their native multiprotein complexes.
(§2) Enzyme and extract catalog products obtained from ENZO Life Sciences included: HDAC1 (Cat. # BML-SE456), HDAC2 (Cat. # BML-SE500), HDAC3 (Cat. # BML-SE507), HDAC3/NCOR1 Complex (Cat. # BML-SE515), HDAC6 (Cat. # BML-SE508), HDAC8 (Cat. # BML-SE145), HDAC10 (Cat. # BML-SE559), HDAC11 (Cat. # BML-SE560), SIRT1 (Cat. # BML-SE239), SIRT2 (Cat. # BML-SE251), SIRT3 (Cat. # BML-SE270), SIRT5 (Cat. # BML-SE555), HeLa Nuclear Extract (Cat. # BML-KI140), Trypsin (“Fluor de Lys Developer”, 80 mg/ml bovine trypsin in 1 mM HCl, Cat. # BML-KI105 or “Fluor de Lys Developer II”, 80 mg/ml bovine trypsin in 1 mM HCl, Cat. # BML-KI176). […] Enzymes obtained from BPS Bioscience, San Diego, Calif. included: human recombinants SIRT4 (Cat. #50015), SIRT6 (Cat. #50017), SIRT7 (Cat. #50018). HeLa whole cell extract was obtained from HeLa S3 cells (American Type Culture Collection) grown in a medium of MEM/10% fetal bovine serum (FBS) as follows: 1) 9×10^6 cells were suspended by trypsinization, followed by a phosphate buffered saline (PBS) rinse and addition of MEM/10% FBS (1.5 mL) to eliminate trypsin before transfer to a 15 mL conical tube; 2) cells were sedimented by a low speed centrifugation, gently resuspended in PBS and sedimented again and supernatant removed; 3) lysis was induced by resuspension in 0.8 mL 50 mM Tris/HCl, pH 8.0 with the non-denaturing detergent NP-40 (0.5%), placement on ice and brief vortexing every 5 min. for 30 min.; 4) 100 μl of a concentrated salt solution in the same buffer was added in order to bring the final buffer composition to 50 mM Tris/C1, pH 8.0, 137 mM NaCl, 2.7 mM KCl, 1 mM MgCl2, 0.5% NP-40; 5) particulate matter was cleared by centrifugation and the cleared lysate supernatant transferred to a 1.5 mL Eppendorf tube and stored on ice until use in activity assays.
(§3) Assays were performed at 37° C., according to the manufacturer's instructions for the “SIRT1 Fluorometric Drug Discovery Kit” from Enzo Life Sciences (ELS) (Cat. # BML-AK555), with exceptions described as follows. Where indicated in figures and text, SIRT1 enzyme was replaced with another enzyme or extract and the “Fluor de Lys-SIRT1 Substrate” (Ac-Arg-His-Lys-Lys(Ac)-AMC; ELS Cat. # BML-KI-177) was replaced with another acetylated, succinylated or trifluoroacetylated substrate.

HDAC3 = target: T2, HDAC3 (Homo sapiens, UniProt O15379); test: HDAC activity with fluorogenic lysyl substrates; assay type: biochemical
T2 construct: purchased ENZO Life Sciences BML-SE507
Method: as §1, §2, §3

HDAC5 = target: T3, HDAC5 (Homo sapiens, UniProt Q9UQL6); test: HDAC activity with fluorogenic lysyl substrates; assay type: biochemical
T3 construct: made in house; host or cells: E. coli
Method: as §1, §2, §3

HDAC8 = target: T4, HDAC8 (Homo sapiens, UniProt Q9BY41); test: HDAC activity with fluorogenic lysyl substrates; assay type: biochemical
T4 construct: purchased ENZO Life Sciences BML-SE145
T4 sequence (Q9BY41 1-377): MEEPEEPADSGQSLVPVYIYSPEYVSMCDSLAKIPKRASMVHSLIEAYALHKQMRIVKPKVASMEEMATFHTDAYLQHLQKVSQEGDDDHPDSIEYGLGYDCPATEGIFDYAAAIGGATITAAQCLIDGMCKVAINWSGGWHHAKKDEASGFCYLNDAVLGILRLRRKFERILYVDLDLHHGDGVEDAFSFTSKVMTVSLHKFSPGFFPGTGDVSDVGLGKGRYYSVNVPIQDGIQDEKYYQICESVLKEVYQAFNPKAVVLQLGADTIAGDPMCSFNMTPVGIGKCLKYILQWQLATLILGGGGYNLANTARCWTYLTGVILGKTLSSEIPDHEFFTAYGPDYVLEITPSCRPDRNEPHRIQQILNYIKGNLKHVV
Method: as §1, §2, §3

HeLa Nuclear Extract = test: Activity of HeLa nuclear extract with fluorogenic lysyl substrates; assay type: biochemical, human
Method: as §1, §2, §3

HDAC10 = target: T5, HDAC10 (Homo sapiens, UniProt Q969S8); test: HDAC activity with fluorogenic lysyl substrates; assay type: biochemical
T5 construct: purchased ENZO Life Sciences BML-SE559
T5 sequence (Q969S8 1-669): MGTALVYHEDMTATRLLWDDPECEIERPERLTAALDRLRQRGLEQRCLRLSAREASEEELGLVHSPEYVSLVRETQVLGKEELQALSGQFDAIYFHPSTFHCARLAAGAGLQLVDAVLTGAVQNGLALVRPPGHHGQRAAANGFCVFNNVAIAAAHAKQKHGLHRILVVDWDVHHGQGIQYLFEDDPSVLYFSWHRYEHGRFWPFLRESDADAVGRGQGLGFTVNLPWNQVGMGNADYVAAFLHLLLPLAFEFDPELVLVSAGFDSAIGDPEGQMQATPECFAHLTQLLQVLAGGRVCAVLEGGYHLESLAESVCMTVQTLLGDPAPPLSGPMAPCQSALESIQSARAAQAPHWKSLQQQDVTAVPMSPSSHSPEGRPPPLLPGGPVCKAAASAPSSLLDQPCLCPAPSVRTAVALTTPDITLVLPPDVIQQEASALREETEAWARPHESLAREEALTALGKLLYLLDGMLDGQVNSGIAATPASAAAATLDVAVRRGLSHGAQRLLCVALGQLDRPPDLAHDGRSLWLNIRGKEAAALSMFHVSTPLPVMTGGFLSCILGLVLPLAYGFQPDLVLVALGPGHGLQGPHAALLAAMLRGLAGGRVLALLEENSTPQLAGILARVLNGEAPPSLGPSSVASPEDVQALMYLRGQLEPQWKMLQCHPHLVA
Method: as §1, §2, §3

T1 sequence (Q13547 whole entry): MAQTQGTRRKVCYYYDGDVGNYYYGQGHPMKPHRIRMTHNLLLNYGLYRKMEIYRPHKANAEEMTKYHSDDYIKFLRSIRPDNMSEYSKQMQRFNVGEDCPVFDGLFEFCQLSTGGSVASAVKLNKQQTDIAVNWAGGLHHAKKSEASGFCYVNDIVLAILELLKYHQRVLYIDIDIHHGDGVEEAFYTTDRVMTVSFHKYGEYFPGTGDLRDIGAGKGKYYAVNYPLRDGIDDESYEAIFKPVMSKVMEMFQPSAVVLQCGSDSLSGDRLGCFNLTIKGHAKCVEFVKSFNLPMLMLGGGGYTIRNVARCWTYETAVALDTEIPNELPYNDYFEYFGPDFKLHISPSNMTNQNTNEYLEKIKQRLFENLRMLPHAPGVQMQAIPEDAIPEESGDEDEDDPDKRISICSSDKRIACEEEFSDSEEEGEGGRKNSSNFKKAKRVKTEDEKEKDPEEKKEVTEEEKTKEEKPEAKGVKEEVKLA
T3 sequence (Q9UQL6 656-1122): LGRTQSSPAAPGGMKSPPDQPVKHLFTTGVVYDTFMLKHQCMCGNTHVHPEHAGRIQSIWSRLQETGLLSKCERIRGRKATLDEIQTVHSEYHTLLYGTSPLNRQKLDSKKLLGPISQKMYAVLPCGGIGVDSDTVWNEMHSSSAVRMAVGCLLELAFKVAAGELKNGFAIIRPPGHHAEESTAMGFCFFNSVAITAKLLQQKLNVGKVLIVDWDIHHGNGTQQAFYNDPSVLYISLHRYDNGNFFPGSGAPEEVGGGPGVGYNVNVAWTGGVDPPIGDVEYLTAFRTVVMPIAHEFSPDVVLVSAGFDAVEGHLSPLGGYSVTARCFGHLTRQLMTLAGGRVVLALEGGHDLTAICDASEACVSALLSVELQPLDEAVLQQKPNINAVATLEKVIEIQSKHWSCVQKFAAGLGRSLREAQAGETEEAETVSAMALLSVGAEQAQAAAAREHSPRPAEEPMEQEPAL
T2 sequence (O15379 whole entry): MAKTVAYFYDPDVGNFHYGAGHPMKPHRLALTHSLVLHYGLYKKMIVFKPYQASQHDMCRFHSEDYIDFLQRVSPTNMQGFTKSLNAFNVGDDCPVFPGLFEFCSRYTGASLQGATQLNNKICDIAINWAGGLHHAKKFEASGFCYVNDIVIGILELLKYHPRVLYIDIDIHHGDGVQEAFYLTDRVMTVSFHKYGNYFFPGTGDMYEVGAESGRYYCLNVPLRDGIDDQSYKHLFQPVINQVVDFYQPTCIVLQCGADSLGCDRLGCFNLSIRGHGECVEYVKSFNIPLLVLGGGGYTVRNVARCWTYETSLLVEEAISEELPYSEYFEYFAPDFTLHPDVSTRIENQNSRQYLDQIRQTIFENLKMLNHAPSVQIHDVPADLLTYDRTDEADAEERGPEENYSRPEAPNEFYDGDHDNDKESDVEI

Molecule | Activity (HDAC1) [pmol/min/µg] | Activity (HDAC3) [pmol/min/µg] | Activity (pmol/min/μg) (HDAC5) | Activity (HDAC8) [pmol/min/µg] | Activity (HeLa Nuclear Extract) [pmol/min/µg] | Activity (pmol/min/μg) (HDAC1) | Activity (pmol/min/μg) (HDAC10) | Activity (pmol/min/μg) (HDAC8) | Activity (HDAC10) [pmol/min/µg] | Activity (HDAC3; listed as Ac-Lys(Acetyl)-AMC) | Activity (pmol/min/μg) (HDAC3)
COC(=O)CCC(=O)NCCCC[C@H](NC(C)=O)C(=O)Nc1ccc2c(C)cc(=O)oc2c1 [Compound 5, N—(N^α-acetyl-L-Lysine(N^ε-methyl succinyl))-AMC] | 0.798 | 0.431 | Undetectable | 0.003 | 1.764 |  |  |  |  |  | 
Ac-Arg-His-Lys-Lys(ε-acetyl)-AMC (Ac-RHKK(Ac)-{AMC}; SMILES CC(=O)NCCCC[C@H](NC(=O)[C@H](CCCCN)NC(=O)[C@H](Cc1c[nH]cn1)NC(=O)[C@H](CCCNC(=N)N)NC(C)=O)C(=O)Nc1ccc2c(C)cc(=O)oc2c1) [Ac-RHKK(Ac)-AMC, p53 peptide fluorogenic deacetylase substrate, Cat. # BML-KI177, reference compound] |  |  |  |  |  | Ac-RHKK(Ac)-AMC/21 pmol/min/μg | Ac-RHKK(Ac)-AMC/2.72 pmol/min/μg |  |  |  | 
CCCCCCCCCCCCCC(=O)NCCCC[C@H](NC(C)=O)C(=O)Nc1ccc2c(C)cc(=O)oc2c1 [Compound 4, N—(N^α-acetyl-L-Lysine(N^ε-myristoyl))-AMC] | 1.651 | 0.963 | Undetectable |  | 0.819 |  |  | Undetectable |  |  | 
CC(=O)NCCCCC(NC(C)=O)C(=O)Nc1ccc2c(C)cc(=O)oc2c1 (stereo not drawn) [Ac-Lys(Ac.)-AMC, Ac-Lys(ε-acetyl)-AMC, reference compound] | 14.8 |  | Undetectable | 0.091 | 31 |  |  |  | 1.21 | 3.8 pmol/min/µg and 3.80 pmol/min/µg | 
CC(=O)N[C@@H](CCCCNC(=O)CCC(=O)O)C(=O)Nc1ccc2c(C)cc(=O)oc2c1 [Compound 1, N—(N^α-acetyl-L-Lysine(N^ε-succinyl))-AMC] |  |  | Undetectable |  | 0.012 | Undetectable | Undetectable | Undetectable |  |  | Undetectable
